US9809563B2 (GIFU University, priority 2014, dated 2017)
Counter-ions that a name gives are not always drawn.

Biological target: abnormal prion protein (Mus musculus, UniProt P04925)
Experiment: cell-based

Chain of abnormal prion protein (P04925 23-230 limits assumed): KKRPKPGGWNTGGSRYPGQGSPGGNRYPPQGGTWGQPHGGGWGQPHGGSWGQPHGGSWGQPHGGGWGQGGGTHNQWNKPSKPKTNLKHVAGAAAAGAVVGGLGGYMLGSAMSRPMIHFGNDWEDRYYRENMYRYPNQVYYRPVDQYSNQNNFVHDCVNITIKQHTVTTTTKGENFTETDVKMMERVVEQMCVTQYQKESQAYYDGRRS

O=C(CN1CCCC1)Nc1ccc(C(c2ccc(NC(=O)CN3CCCC3)cc2)C2CCCCC2)cc1 [maleic acid salt, N,N′-[(cyclohexylmethylene)di-4,1-phenylene]bis[2-(1-pyrrolidinyl)acetamide] maleate]
IC50: 460 ± 200 nM
